# Results from patent US12589161B2, “PEGylated synthetic KL4 peptide, compositions and methods thereof” (THE UNIVERSITY OF HONG KONG, priority 2019, dated 2026).
# Non-standard residues stand in square brackets, D forms with d. Residues, ends and D or L forms follow the SMILES beside them. PEG12 = NCCOCCOCCOCCOCCOCCOCCOCCOCCOCCOCCOCCOCCC(=O)O; PEG6 = NCCOCCOCCOCCOCCOCCOCCC(=O)O
# How the values were obtained:
# [1] = system: Calu-3 cells; assay: GAPDH siRNA transfection on Calu-3 cells (Western blot); assay type: cell-based, human; conditions: one-way ANOVA, Tukey, n.s. not significant, * p<0.05, ** p<0.01, *** p<0.001
# Method: (§1) A549 cells, BEAS-2B and Calu-3 cells were seeded in six-well plates at a density of 1.6×10^5 cells per well, 2×10^5 cells per well and 3×10^5 cells per well, respectively, one to two days before transfection. The cells were transfected with peptide/siRNA complexes at 5:1 to 20:1 ratio (w/w) containing GAPDH siRNA or negative control siRNA (6 to 100 nM) in OptiMEM I reduced serum medium. Lipofectamine 2000 was used for comparison. After 5 h of incubation, the cells were washed and replaced with serum supplemented cell culture medium. At 72 h post-transfection, the cells were washed and lysed with cell lysis buffer. Western blotting assay was performed to analyze the level of GAPDH protein as previously described. The GAPDH expression was analyzed by densitometry of Western blots using ImageJ software (Version 1.52). The GAPDH expression was normalized with the expression of […]-actin of the corresponding sample. The remaining GAPDH expression was the normalized GAPDH expression of positive control divided by the normalized GAPDH expression of negative control.
# [2] = system: BEAS-2B cells; assay: GAPDH siRNA transfection on BEAS-2B cells (Western blot); assay type: cell-based, human; conditions: for siRNA transfection efficiency: 50 nM siRNA, 72 h; for Comparison within the same peptide prepared at different peptide to siRNA ratios: one-way ANOVA, Tukey, n.s. not significant, * p<0.05, ** p<0.01, *** p<0.001
# Method: as §1
# [3] = Charge ratio of peptide to siRNA at 10:1 weight ratio
# Text: This is partly because the uncharged PEG chains reduced the effective charge ratio between cationic KL4 and siRNA [77]. The charge ratios of KL4, PEG6KL4, PEG12KL4 and PEG24KL4 to siRNA at 10:1 weight ratio are 6.1 to 1, 5.5 to 1, 4.9 to 1 and 4.2 to 1, respectively. […] The molecular weight of the PEG used in this study, which is below 1,200 Da, is relatively low compared with others where PEG of 2,000 to 5,000 Da was often used. Therefore, PEGylated KL4 peptide/siRNA complexes remained to be positively charged, which is suitable for cellular entry. […] In addition, PEG also provides steric hindrance between the interaction of KL4 and siRNA that weakens the binding, promoting the release of siRNA from the complexes after the addition of heparin.
# [4] = Solubility of peptides in water; assay type: physicochemical
# [5] = system: A549 cells; assay: GAPDH siRNA transfection on A549 cells (Western blot); assay type: cell-based, human; conditions: for inhibition of GAPDH protein: A549, 25 nM siRNA, 10:1 ratio (w/w); for siRNA transfection efficiency among the four peptides at different amounts of siRNA: A549, 10:1 ratio, 6 to 100 nM siRNA; for Comparison within the same peptide prepared at different peptide to siRNA ratios: A549, one-way ANOVA, Tukey, n.s. not significant, * p<0.05, ** p<0.01, *** p<0.001
# Method: A549 cells were seeded in 6-well plates at a density of 1.5×10^5 cells per well one day before transfection. The cells were transfected with peptide/siRNA complexes containing 50 pmol of GAPDH siRNA or negative control siRNA per well (50 nM). The complexes were prepared in OptiMEM I reduced serum medium at 10:1, 15:1 and 20:1 ratios (w/w). Lipofectamine 2000 was used as control. The complexes were added to the cells and incubated for 4 h at 5% CO2, 37° C. before being washed with PBS. The transfection medium was removed and replaced with serum supplemented cell culture medium. At 72 h post-transfection, the cells were washed and lysed with cell lysis buffer. Western blotting assay was performed to analyze the level of GAPDH protein. The GAPDH expression was analyzed by densitometry of Western Blots using Image J software. The remaining GAPDH expression was the density of the GAPDH band of positive control (normalized with beta-actin of the corresponding sample) divided by the GAPDH band of negative control (normalized with the beta actin band of the corresponding sample).
# as §1
# [6] = Circular dichroism, temperature ramping; assay type: physicochemical; conditions: 6 to 94 °C, 5 mM Tris-HCl buffer, 0.1 mg/mL
# Method: KL4 and PEG6KL4 peptides were dissolved in 5 mM Tris-HCl buffer at a final concentration of 0.1 mg/mL in 0.1% (v/v) DMSO. PEG12KL4 and PEG24KL4 were dissolved in 5 mM Tris-HCl buffer at a final concentration of 0.1 mg/mL without DMSO. CD spectra were acquired on a Chirascan™ Spectrometer (Applied Photophysics, Leatherhead, UK). For temperature ramping experiment, far-UV CD spectra were obtained with the peptide solution incubated from 6° C. to 94° C. Spectra were recorded from 260 to 190 nm using a 0.5 mm path length and were processed using Chirascan software where a spectrum of the peptide free solution was subtracted and Savitzky-Gorlay smoothing applied.
# [7] = system: A549 cells; assay: Luciferase mRNA transfection in vitro on A549 cells; assay type: cell-based, human; conditions: 24 h post-transfection
# Method: (§2) A549 cells and BEAS-2B cells were seeded in 24-well plates at a density of 0.5×10^5 and 1×10^5 cells per well, respectively, for overnight. The KL4/mRNA and PEG12KL4/mRNA complexes formed at 5:1 to 30:1 ratio (w/w) in OptiMEM I reduced serum medium were added to the cells at 0.5 or 1 μg mRNA per well. Naked mRNA and lipoplexes (Lipofectamine 2000/mRNA complexes) were used as controls. After 4 h of incubation, the transfection medium was replaced with serum supplemented cell culture medium. At 24 h post-transfection, the cells were washed and lysed with reporter cell lysis buffer. The luciferase expression was detected using the luciferase assay system according to the manufacturer's protocol. The luminescence was measured with luminometer (SpectraMax L Microplate Reader, Molecular devices, CA, USA) and the protein concentrations of the cell lysates were quantified by Bradford protein assay. The results were expressed as relative light unit (RLU) per mg of total protein. To study the transfection efficiency of PEG12KL4/mRNA in SD and SFD powder formulations, the powders were reconstituted before adding to the cells. The luciferase expression was examined at 24 h post-transfection as described above.
# [8] = system: BEAS-2B cells; assay: Luciferase mRNA transfection in vitro on BEAS-2B cells; assay type: cell-based, human; conditions: 24 h post-transfection
# Method: as §2
# [9] = system: A549 cells; assay: Cellular uptake study of mRNA (flow cytometry and confocal microscopy); assay type: cell-based, human; conditions: 10:1 ratio (w/w), cyanine-5 labelled mRNA, 4 h post-transfection, flow cytometry
# Method: The cellular uptake of the mRNA was studied by flow cytometry and confocal microscopy. For the flow cytometry study, A549 cells were seeded in 24-well plates at a density of 0.5×10^5 cells per well one day before the experiment. The cells were transfected with naked mRNA, KL4/mRNA and PEG12KL4/mRNA complexes at 10:1 ratio (w/w) in OptiMEM I reduced serum medium containing 1 μg of cyanine-5 labelled EGFP mRNA per well. After 4 h of incubation, the cells were washed and trypsinized. Cells from three separate wells of the same treatment were combined and suspended in culture medium. The extracellular florescent signal was quenched with 0.04% (w/v) trypan blue solution. After 2 min, the cells were washed, resuspended in 300 μL of PBS and sieved with a sterile 40 μm cell strainer (BD Biosciences, CA, USA). The fluorescence intensity was analyzed by flow cytometry (BD FACSCantoII Analyzer, BD Biosciences, CA, USA). At least 1×10^4 single cells were analyzed for each sample. For the confocal study, A549 cells were seeded in a 35 mm Mattek glass bottom culture dish (Mattek Corp. Ashland, MA, USA) at a density of 1×10^5 cells per well one day before imaging. Naked mRNA, KL4/mRNA and PEG12KL4/mRNA complexes at 10:1 ratio (w/w) were prepared in Opti-MEM I reduced serum medium with 2 μg of cyanine-5 labelled mRNA per dish. […]
smiles,measurement,setting,value
CC(C)C[C@H](NC(=O)[C@H](CC(C)C)NC(=O)[C@H](CC(C)C)NC(=O)[C@H](CC(C)C)NC(=O)[C@H](CCCCN)NC(=O)[C@H](CC(C)C)NC(=O)[C@H](CC(C)C)NC(=O)[C@H](CC(C)C)NC(=O)[C@H](CC(C)C)NC(=O)[C@H](CCCCN)NC(=O)[C@H](CC(C)C)NC(=O)[C@H](CC(C)C)NC(=O)[C@H](CC(C)C)NC(=O)[C@H](CC(C)C)NC(=O)[C@H](CCCCN)NC(=O)[C@H](CC(C)C)NC(=O)[C@H](CC(C)C)NC(=O)[C@H](CC(C)C)NC(=O)[C@H](CC(C)C)NC(=O)[C@H](CCCCN)NC(=O)CCOCCOCCOCCOCCOCCOCCN)C(=O)N[C@@H](CCCCN)C(N)=O [PEG6KL4] (H-[PEG6]KLLLLKLLLLKLLLLKLLLLK-NH2; N-terminus assumed),Comparison within the same peptide prepared at different peptide to siRNA ratios,[1],n.s.
same,siRNA transfection efficiency,[2],significantly higher transfection efficiency compared with lipofectamine 2000
same,Comparison within the same peptide prepared at different peptide to siRNA ratios,[2],n.s.
same,charge ratio of peptide to siRNA,[3],5.5 to 1
same,solubility,[4],< 1000 µg/mL
same,inhibition of GAPDH protein,[5]; 72 h,80%
same,siRNA transfection efficiency among the four peptides at different amounts of siRNA,[5]; 72 h,most effective in transfecting siRNA
same,Comparison within the same peptide prepared at different peptide to siRNA ratios,[5],n.s.
same,secondary structure at different temperatures (far-UV CD),[6],adopted an alpha-helical structure at all tested temperatures
CC(C)C[C@H](NC(=O)[C@H](CC(C)C)NC(=O)[C@H](CC(C)C)NC(=O)[C@H](CC(C)C)NC(=O)[C@H](CCCCN)NC(=O)[C@H](CC(C)C)NC(=O)[C@H](CC(C)C)NC(=O)[C@H](CC(C)C)NC(=O)[C@H](CC(C)C)NC(=O)[C@H](CCCCN)NC(=O)[C@H](CC(C)C)NC(=O)[C@H](CC(C)C)NC(=O)[C@H](CC(C)C)NC(=O)[C@H](CC(C)C)NC(=O)[C@H](CCCCN)NC(=O)[C@H](CC(C)C)NC(=O)[C@H](CC(C)C)NC(=O)[C@H](CC(C)C)NC(=O)[C@H](CC(C)C)NC(=O)[C@H](CCCCN)NC(=O)CCOCCOCCOCCOCCOCCOCCOCCOCCOCCOCCOCCOCCN)C(=O)N[C@@H](CCCCN)C(N)=O [PEG12KL4] (H-[PEG12]KLLLLKLLLLKLLLLKLLLLK-NH2; N-terminus assumed),siRNA transfection efficiency,[2],significantly higher transfection efficiency compared with lipofectamine 2000
same,Comparison within the same peptide prepared at different peptide to siRNA ratios,[2],n.s.
same,mRNA transfection efficiency compared with Lipofectamine 2000,[7],comparable to that of Lipofectamine 2000
same,charge ratio of peptide to siRNA,[3],4.9 to 1
same,solubility,[4],> 2000 µg/mL
same,mRNA transfection efficiency compared with Lipofectamine 2000,[8],comparable to that of Lipofectamine 2000
same,inhibition of GAPDH protein,[5]; 72 h,80%
same,siRNA transfection compared with KL4,"[5]; A549, 10:1, 15:1 and 20:1 ratios, 50 pmol siRNA, 72 h, n=1 (FIG. 13)",superior to KL4 in mediating siRNA transfection at all tested ratios
same,siRNA transfection efficiency among the four peptides at different amounts of siRNA,[5]; 72 h,most effective in transfecting siRNA
same,Comparison within the same peptide prepared at different peptide to siRNA ratios,[5],n.s.
same,percentage of cells with mRNA uptake,[9],Over 60%
same,secondary structure at different temperatures (far-UV CD),[6],more sensitive in response to temperature compared with the other peptides
